Experimental data published in PubChem BioAssay (NCI).
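48-hour exposure; five concentrations; linearly interpolated endpoints. Here, GI50 denotes the concentration required for 50% inhibition of growth. TGI is the concentration that stops growth completely.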

Key:
Assay in all cases: NCI-60 cell line screen, 48 h; in the data active = GI50 below about 0.43 µM; inactive = the rest
MALME-3M melanoma = tested on: MALME-3M melanoma
ACHN renal = tested on: ACHN renal
SF-539 CNS = tested on: SF-539 CNS
CCRF-CEM leukemia = tested on: CCRF-CEM leukemia
786-0 renal = tested on: 786-0 renal
NCI-H23 lung = tested on: NCI-H23 lung
UACC-62 melanoma = tested on: UACC-62 melanoma
M14 melanoma = tested on: M14 melanoma
K-562 leukemia = tested on: K-562 leukemia
NCI/ADR-RES ovarian = tested on: NCI/ADR-RES ovarian
OVCAR-4 ovarian = tested on: OVCAR-4 ovarian
HCT-116 colon = tested on: HCT-116 colon
SF-295 CNS = tested on: SF-295 CNS
OVCAR-3 ovarian = tested on: OVCAR-3 ovarian
HT29 colon = tested on: HT29 colon
SK-MEL-5 melanoma = tested on: SK-MEL-5 melanoma
NCI-H226 lung = tested on: NCI-H226 lung
HOP-92 NSCLC = tested on: HOP-92 NSCLC
RXF 393 renal = tested on: RXF 393 renal
PC-3 prostate = tested on: PC-3 prostate
SW-620 colon = tested on: SW-620 colon
KM12 colon = tested on: KM12 colon
IGROV1 ovarian = tested on: IGROV1 ovarian
MCF7 breast = tested on: MCF7 breast
SN12C renal = tested on: SN12C renal
SF-268 CNS = tested on: SF-268 CNS
LOX IMVI melanoma = tested on: LOX IMVI melanoma
MDA-MB-435 = tested on: MDA-MB-435
CAKI-1 renal = tested on: CAKI-1 renal
RPMI-8226 leukemia = tested on: RPMI-8226 leukemia
U251 CNS = tested on: U251 CNS
EKVX NSCLC = tested on: EKVX NSCLC
SNB-19 CNS = tested on: SNB-19 CNS
BT-549 breast = tested on: BT-549 breast
MDA-MB-231 breast = tested on: MDA-MB-231 breast
OVCAR-5 ovarian = tested on: OVCAR-5 ovarian
MOLT-4 leukemia = tested on: MOLT-4 leukemia
TK-10 renal = tested on: TK-10 renal
HL-60(TB) leukemia = tested on: HL-60(TB) leukemia
HS 578T breast = tested on: HS 578T breast
HOP-62 NSCLC = tested on: HOP-62 NSCLC
UO-31 renal = tested on: UO-31 renal
SK-MEL-28 melanoma = tested on: SK-MEL-28 melanoma
NCI-H460 lung = tested on: NCI-H460 lung
SK-MEL-2 melanoma = tested on: SK-MEL-2 melanoma
UACC-257 melanoma = tested on: UACC-257 melanoma
A498 renal = tested on: A498 renal
COLO 205 colon = tested on: COLO 205 colon
SK-OV-3 ovarian = tested on: SK-OV-3 ovarian
NCI-H522 lung = tested on: NCI-H522 lung
HCT-15 colon = tested on: HCT-15 colon
HCC-2998 colon = tested on: HCC-2998 colon
SNB-75 CNS = tested on: SNB-75 CNS
OVCAR-8 ovarian = tested on: OVCAR-8 ovarian
DU-145 prostate = tested on: DU-145 prostate
T-47D breast = tested on: T-47D breast

COC(=O)c1ccc2c(c1)C(=O)c1c-2n(CCCN=[N+]=[N-])c(=O)c2cc([N+](=O)[O-])ccc12
67.5 µM: TGI (HOP-62 NSCLC)
48.8 µM: TGI (U251 CNS)
28.7 µM: TGI (ACHN renal)
82.5 µM: TGI (SK-MEL-2 melanoma)
inactive: GI50 (MALME-3M melanoma) 63 µM | GI50 (ACHN renal) 13 µM | GI50 (SF-539 CNS) 53.1 µM | GI50 (CCRF-CEM leukemia) 42.2 µM | GI50 (786-0 renal) 25.1 µM | GI50 (NCI-H23 lung) 60 µM | GI50 (UACC-62 melanoma) 37.2 µM | GI50 (M14 melanoma) > 100 µM | GI50 (K-562 leukemia) 48 µM | GI50 (NCI/ADR-RES ovarian) > 100 µM | GI50 (OVCAR-4 ovarian) > 100 µM | GI50 (HCT-116 colon) 47.4 µM | GI50 (SF-295 CNS) 59.8 µM | GI50 (OVCAR-3 ovarian) > 100 µM | GI50 (HT29 colon) > 100 µM | GI50 (SK-MEL-5 melanoma) > 100 µM | GI50 (NCI-H226 lung) > 100 µM | GI50 (HOP-92 NSCLC) 17.5 µM | GI50 (RXF 393 renal) 37.3 µM | GI50 (PC-3 prostate) > 100 µM | GI50 (SW-620 colon) > 100 µM | GI50 (KM12 colon) > 100 µM | GI50 (IGROV1 ovarian) 21 µM | GI50 (MCF7 breast) > 100 µM | GI50 (SN12C renal) > 100 µM | GI50 (SF-268 CNS) 17.3 µM | GI50 (LOX IMVI melanoma) 61.6 µM | GI50 (MDA-MB-435) > 100 µM | GI50 (CAKI-1 renal) > 100 µM | GI50 (RPMI-8226 leukemia) 63.3 µM | GI50 (U251 CNS) 18 µM | GI50 (EKVX NSCLC) 83.5 µM | GI50 (SNB-19 CNS) 47.4 µM | GI50 (BT-549 breast) 24.1 µM | GI50 (MDA-MB-231 breast) 58 µM | GI50 (OVCAR-5 ovarian) > 100 µM | GI50 (MOLT-4 leukemia) 30.2 µM | GI50 (TK-10 renal) 29.6 µM | GI50 (HL-60(TB) leukemia) > 100 µM | GI50 (HS 578T breast) 42.6 µM | GI50 (HOP-62 NSCLC) 25.8 µM | GI50 (UO-31 renal) > 100 µM | GI50 (SK-MEL-28 melanoma) > 100 µM | GI50 (NCI-H460 lung) 38.1 µM | GI50 (SK-MEL-2 melanoma) 27 µM | GI50 (UACC-257 melanoma) > 100 µM | GI50 (A498 renal) > 100 µM | GI50 (COLO 205 colon) > 100 µM | GI50 (SK-OV-3 ovarian) 35.3 µM | GI50 (NCI-H522 lung) 34.3 µM | GI50 (HCT-15 colon) > 100 µM | GI50 (HCC-2998 colon) > 100 µM | GI50 (SNB-75 CNS) 20.5 µM | GI50 (OVCAR-8 ovarian) > 100 µM | GI50 (DU-145 prostate) 70.9 µM | GI50 (T-47D breast) > 100 µM
68.6 µM: TGI (TK-10 renal)
40.8 µM: TGI (SNB-75 CNS)
69.6 µM: TGI (BT-549 breast)
53.3 µM: TGI (HOP-92 NSCLC)
79 µM: TGI (786-0 renal)
> 100 µM: TGI (MALME-3M melanoma) | TGI (SF-539 CNS) | TGI (CCRF-CEM leukemia) | TGI (NCI-H23 lung) | TGI (UACC-62 melanoma) | TGI (M14 melanoma) | TGI (K-562 leukemia) | TGI (NCI/ADR-RES ovarian) | TGI (OVCAR-4 ovarian) | TGI (HCT-116 colon) | TGI (SF-295 CNS) | TGI (OVCAR-3 ovarian) | TGI (HT29 colon) | TGI (SK-MEL-5 melanoma) | TGI (NCI-H226 lung) | TGI (RXF 393 renal) | TGI (PC-3 prostate) | TGI (SW-620 colon) | TGI (KM12 colon) | TGI (IGROV1 ovarian) | TGI (MCF7 breast) | TGI (SN12C renal) | TGI (SF-268 CNS) | TGI (LOX IMVI melanoma) | TGI (MDA-MB-435) | TGI (CAKI-1 renal) | TGI (RPMI-8226 leukemia) | TGI (EKVX NSCLC) | TGI (SNB-19 CNS) | TGI (MDA-MB-231 breast) | TGI (OVCAR-5 ovarian) | TGI (MOLT-4 leukemia) | TGI (HL-60(TB) leukemia) | TGI (HS 578T breast) | TGI (UO-31 renal) | TGI (SK-MEL-28 melanoma) | TGI (NCI-H460 lung) | TGI (UACC-257 melanoma) | TGI (A498 renal) | TGI (COLO 205 colon) | TGI (SK-OV-3 ovarian) | TGI (NCI-H522 lung) | TGI (HCT-15 colon) | TGI (HCC-2998 colon) | TGI (OVCAR-8 ovarian) | TGI (DU-145 prostate) | TGI (T-47D breast)
